Source: the supplement of paper PMC11451515

Tested on: SEM cells
Test: cell viability relative to DMSO control; higher = less cytotoxic
Conditions: 48 h
How it was run: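 Viability is a per-plate percentage relative to DMSO wells, with cell-free wells as background. CellTiter-Glo One luminescence was read after 48 h at 37°C on 1536-well plates (5 μl) of NOMO1 or SEM (500 cells/well) or P12-Ichikawa (1000 cells/well) leukemia cells. The cells had been adapted for at least four passages in each medium and pin-dosed with library compounds in DMSO from 47 μM to 0.79 nM in 11 threefold steps.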

[1] = HPLM + 10% dialyzed FBS, 0.000781 µM
[2] = HPLM + 10% dialyzed FBS, 0.00234 µM
[3] = HPLM + 10% dialyzed FBS, 0.00702 µM
[4] = HPLM + 10% dialyzed FBS, 0.0211 µM
[5] = HPLM + 10% dialyzed FBS, 0.0632 µM
[6] = HPLM + 10% dialyzed FBS, 0.19 µM
[7] = HPLM + 10% dialyzed FBS, 0.569 µM
[8] = HPLM + 10% dialyzed FBS, 1.71 µM
[9] = HPLM + 10% dialyzed FBS, 5.12 µM
[10] = HPLM + 10% dialyzed FBS, 15.4 µM
[11] = HPLM + 10% dialyzed FBS, 46.1 µM
[12] = RPMI 5 mM glucose + 10% FBS, 0.000781 µM
[13] = RPMI 5 mM glucose + 10% FBS, 0.00234 µM
[14] = RPMI 5 mM glucose + 10% FBS, 0.00702 µM
[15] = RPMI 5 mM glucose + 10% FBS, 0.0211 µM
[16] = RPMI 5 mM glucose + 10% FBS, 0.0632 µM
[17] = RPMI 5 mM glucose + 10% FBS, 0.19 µM
[18] = RPMI 5 mM glucose + 10% FBS, 0.569 µM
[19] = RPMI 5 mM glucose + 10% FBS, 1.71 µM
[20] = RPMI 5 mM glucose + 10% FBS, 5.12 µM
[21] = RPMI 5 mM glucose + 10% FBS, 15.4 µM
[22] = RPMI 5 mM glucose + 10% FBS, 46.1 µM
[23] = RPMI 5 mM glucose + 10% dialyzed FBS, 0.000781 µM
[24] = RPMI 5 mM glucose + 10% dialyzed FBS, 0.00234 µM
[25] = RPMI 5 mM glucose + 10% dialyzed FBS, 0.00702 µM
[26] = RPMI 5 mM glucose + 10% dialyzed FBS, 0.0211 µM
[27] = RPMI 5 mM glucose + 10% dialyzed FBS, 0.0632 µM
[28] = RPMI 5 mM glucose + 10% dialyzed FBS, 0.19 µM
[29] = RPMI 5 mM glucose + 10% dialyzed FBS, 0.569 µM
[30] = RPMI 5 mM glucose + 10% dialyzed FBS, 1.71 µM
[31] = RPMI 5 mM glucose + 10% dialyzed FBS, 5.12 µM
[32] = RPMI 5 mM glucose + 10% dialyzed FBS, 15.4 µM
[33] = RPMI 5 mM glucose + 10% dialyzed FBS, 46.1 µM

| Structure (SMILES) | cell viability [1] [%] | cell viability [2] [%] | cell viability [3] [%] | cell viability [4] [%] | cell viability [5] [%] | cell viability [6] [%] | cell viability [7] [%] | cell viability [8] [%] | cell viability [9] [%] | cell viability [10] [%] | cell viability [11] [%] | cell viability [12] [%] | cell viability [13] [%] | cell viability [14] [%] | cell viability [15] [%] | cell viability [16] [%] | cell viability [17] [%] | cell viability [18] [%] | cell viability [19] [%] | cell viability [20] [%] | cell viability [21] [%] | cell viability [22] [%] | cell viability [23] [%] | cell viability [24] [%] | cell viability [25] [%] | cell viability [26] [%] | cell viability [27] [%] | cell viability [28] [%] | cell viability [29] [%] | cell viability [30] [%] | cell viability [31] [%] | cell viability [32] [%] | cell viability [33] [%] |
| --- | --- | --- | --- | --- | --- | --- | --- | --- | --- | --- | --- | --- | --- | --- | --- | --- | --- | --- | --- | --- | --- | --- | --- | --- | --- | --- | --- | --- | --- | --- | --- | --- | --- |
| O=C1Nc2ccc(I)cc2/C1=C/c1cc(Br)c(O)c(Br)c1 | 98.4 | 107 | 103 | 104 | 101 | 111 | 107 | 96.5 | 105 | 94.6 | 76.8 | 113 | 113 | 105 | 112 | 102 | 115 | 118 | 110 | 108 | 88.4 | 67.5 | 115 | 109 | 115 | 111 | 121 | 106 | 121 | 110 | 104 | 89 | 62.5 |
| COc1cc([C@H]2Oc3cc([C@H]4Oc5cc(O)cc(O)c5C(=O)[C@@H]4O)ccc3O[C@@H]2CO)ccc1O | 63.6 | 105 | 109 | 112 | 117 | 121 | 121 | 105 | 110 | 98.6 | 92.7 | 101 | 118 | 117 | 116 | 121 | 118 | 104 | 120 | 123 | 120 | 108 | 93.5 | 114 | 124 | 124 | 133 | 126 | 124 | 132 | 118 | 120 | 112 |
| COc1cc2nc(N3CCN(C(=O)C4CCCO4)CC3)nc(N)c2cc1OC (configuration not stated) | 74.1 | 117 | 97 | 118 | 109 | 117 | 122 | 114 | 116 | 119 | 113 | – | – | – | – | – | – | – | – | – | – | – | 84.6 | 125 | 110 | 124 | 134 | 142 | 27.4 | 134 | 162 | 148 | 128 |
| COC/1=C/C=C2\C(=C/C1=O)[C@H](CCC3=CC(=C(OC)C(=C23)OC)OC)NC(C)=O | 32.1 | 25.8 | 26.1 | 23.7 | 18.7 | 14.5 | 11 | 11.5 | 10.1 | 10 | 3.47 | 19 | 19.2 | 15.9 | 15.9 | 12.3 | 8.3 | 5.66 | 6.98 | 5.01 | 4.81 | 2.96 | 20.9 | 20.5 | 21.6 | 21.8 | 10.7 | 8.08 | 7.02 | 5.24 | 4.72 | 4.63 | 2.48 |
| CC(C)c1cnn2c(NCc3ccccc3)cc(NCCCCCCN)nc12 | 121 | 126 | 121 | 117 | 111 | 111 | 119 | 120 | 118 | 106 | 84.9 | 89.8 | 77.3 | 105 | 88.1 | 82.3 | 93.9 | 83.5 | 96.9 | 88.2 | 76.3 | 77.4 | 108 | 109 | 120 | 121 | 98.4 | 117 | 112 | 115 | 96.4 | 114 | 81.8 |
| C[S+](=O)([O-])c1ccc(C(=O)Nc2ccc(Cl)c(-c3ccccn3)c2)c(Cl)c1 | 97.9 | 98.7 | 129 | 116 | 126 | 127 | 131 | 122 | 140 | 126 | 144 | 100 | 117 | 129 | 123 | 126 | 150 | 121 | 122 | 153 | 25.2 | 139 | 104 | 98.5 | 136 | 120 | 131 | 111 | 138 | 142 | 127 | 140 | 134 |
| COC1=C2C[C@@H](C)C[C@H](OC)[C@H](O)[C@@H](C)/C=C(\C)[C@H](OC(N)=O)[C@@H](OC)/C=C/C=C(\C)C(=O)NC(=CC1=O)C2=O | 122 | 115 | 125 | 127 | 117 | 123 | 101 | 115 | 100 | 6.39 | 5.09 | – | – | – | – | – | – | – | – | – | – | – | 110 | 105 | 102 | 108 | 97.2 | 95.8 | 99.7 | 114 | 72.2 | 5.54 | 4.75 |
| CN(C)c1nc(Cc2ccc(NC(=O)c3ccc4ccccc4c3)cc2)nc(Cl)c1CC(=O)O | 120 | 114 | 112 | 116 | 109 | 111 | 138 | 113 | 105 | 110 | 105 | 110 | 116 | 127 | 108 | 107 | 110 | 110 | 93.8 | 107 | 102 | 105 | 119 | 115 | 136 | 122 | 126 | 108 | 112 | 107 | 111 | 137 | 108 |
